MIC data for 25 compounds are collected here from patent US10471046B2, “Method for treating, preventing, or reducing the risk of skin infection” (Melinta Subsidiary Corp., priority 2014, dated 2019).

Each structure is given as a SMILES string. ≈ marks a conversion by molar mass, not a printed value.

The test system of the assay is S. aureus. Put plainly: Minimum inhibitory concentrations (MICs) for S. aureus of exemplary compounds (Table 2). It counts as cell-based. As to conditions: Staphylococcus aureus, minimum inhibitory concentrations for S. aureus; read-out: MICs. The gist of the method:
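MICs (μg/mL) against S. aureus come from microtiter-tray dilution susceptibility testing per NCCLS M7-A5, comparing growth with and without compound.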

Regarding `CC(=O)NC[C@H]1CN(c2ccc(-c3ccc(CNCC(=O)N4CCOCC4)cc3)c(F)c2)C(=O)O1` [Compound 4316, N-(3-{2-Fluoro-4′-[(2-morpholin-4-yl-2-oxo-ethylamino)-methyl]-biphenyl-4-yl}-2-oxo-oxazolidin-5-(S)-ylmethyl)-acetamide], the MIC was 4 µg/mL (≈ 8.26 µM).

In the case of `CC(=O)NC[C@H]1CN(c2ccc(-c3ccc(CNCC4CCN(C(=O)OC(C)(C)C)C4)cc3)c(F)c2)C(=O)O1` (stereo partly drawn) [Compound 4317, 3-[({4′-[5-(S)-(Acetylamino-methyl)-2-oxo-oxazolidin-3-yl]-2′-fluoro-biphenyl-4-ylmethyl}-amino)-methyl]-pyrrolidine-1-carboxylic acid tert-butyl ester], the MIC turned out to be 16 µg/mL (≈ 29.6 µM).

In the case of `CC(=O)NC[C@H]1CN(c2ccc(-c3ccc(CNCCN4CCOCC4)cc3)c(F)c2)C(=O)O1` [Compound 4318, N-(3-{2-Fluoro-4′-[(2-morpholin-4-yl-ethylamino)-methyl]-biphenyl-4-yl}-2-oxo-oxazolidin-5-(S)-ylmethyl)-acetamide], the MIC turned out to be 16 µg/mL (≈ 34 µM).

`CC(=O)NC[C@H]1CN(c2ccc(-c3ccc(CNC(=O)C4CC4)cc3)c(F)c2)C(=O)O1` [Compound 4319, Cyclopropanecarboxylic acid {4′-[5-(S)-(acetylamino-methyl)-2-oxo-oxazolidin-3-yl]-2′-fluoro-biphenyl-4-ylmethyl}-amide]: the MIC was determined as 16 µg/mL (≈ 37.6 µM).

For the compound `CC(=O)NC[C@H]1CN(c2ccc(-c3ccc(CNC(=O)C4(N)CC4)cc3)c(F)c2)C(=O)O1` [Compound 4321, 1-Amino-cyclopropanecarboxylic acid {4′-[5-(S)-(acetylamino-methyl)-2-oxo-oxazolidin-3-yl]-2′-fluoro-biphenyl-4-ylmethyl}-amide], the MIC came to 2 µg/mL (≈ 4.54 µM).

Take `CC(=O)NC[C@H]1CN(c2ccc(-c3ccc(CNCCSc4cnn[nH]4)cc3)c(F)c2)C(=O)O1` [Compound 5001, N-[3-(2-Fluoro-4′-{[2-(3H-[1,2,3]triazol-4-ylsulfanyl)-ethylamino]-methyl}-biphenyl-4-yl)-2-oxo-oxazolidin-5-(S)-ylmethyl]-acetamide]: the MIC was found to be 1 µg/mL (≈ 2.06 µM).

With `CC(=O)NC[C@H]1CN(c2ccc(-c3ccc(CNCCCSc4cnn[nH]4)cc3)c(F)c2)C(=O)O1` [Compound 5002, N-[3-(2-Fluoro-4′-{[3-(3H-[1,2,3]triazol-4-ylsulfanyl)-propylamino]-methyl}-biphenyl-4-yl)-2-oxo-oxazolidin-5-(S)-ylmethyl]-acetamide], the MIC came to 0.25 µg/mL (≈ 0.501 µM).

With `CC(=O)NC[C@H]1CN(c2ccc(-c3ccc(CNCCSc4nncs4)cc3)c(F)c2)C(=O)O1` [Compound 5003, N-[3-(2-Fluoro-4′-{[2-([1,3,4]thiadiazol-2-ylsulfanyl)-ethylamino]-methyl}-biphenyl-4-yl)-2-oxo-oxazolidin-5-(S)-ylmethyl]-acetamide], the MIC turned out to be 1 µg/mL (≈ 1.99 µM).

For `CC(=O)NC[C@H]1CN(c2ccc(-c3ccc(CNCCSc4ccccn4)cc3)c(F)c2)C(=O)O1` [Compound 5004, N-[3-(2-Fluoro-4′-{[2-(pyridin-2-ylsulfanyl)-ethylamino]-methyl}-biphenyl-4-yl)-2-oxo-oxazolidin-5-(S)-ylmethyl]-acetamide], the MIC was 1 µg/mL (≈ 2.02 µM).

As for `CC(=O)NC[C@H]1CN(c2ccc(-c3ccc(CNCCSc4nnc[nH]4)cc3)c(F)c2)C(=O)O1` [Compound 5005, N-[3-(2-Fluoro-4′-{[2-(4H-[1,2,4]triazol-3-ylsulfanyl)-ethylamino]-methyl}-biphenyl-4-yl)-2-oxo-oxazolidin-5-(S)-ylmethyl]-acetamide], the MIC is 0.5 µg/mL (≈ 1.03 µM).

`CC(=O)NC[C@H]1CN(c2ccc(-c3ccc(CNCCSc4nccs4)cc3)c(F)c2)C(=O)O1` [Compound 5006, N-[3-(2-Fluoro-4′-{[2-(thiazol-2-ylsulfanyl)-ethylamino]-methyl}-biphenyl-4-yl)-2-oxo-oxazolidin-5-(S)-ylmethyl]-acetamide]: the MIC came to 1 µg/mL (≈ 2 µM).

Take `O=C1O[C@@H](Cn2ccnn2)CN1c1ccc(-c2ccc(CNCCSc3cnn[nH]3)cc2)c(F)c1` [Compound 5007, 3-(2-Fluoro-4′-{[2-(3H-[1,2,3]triazol-4-ylsulfanyl)-ethylamino]-methyl}-biphenyl-4-yl)-5-(R)-[1,2,3]triazol-1-ylmethyl-oxazolidin-2-one]: the MIC amounted to 0.25 µg/mL (≈ 0.506 µM).

Consider `CC(=O)NC[C@H]1CN(c2ccc(-c3ccc(CNCCSc4ncc[nH]4)cc3)c(F)c2)C(=O)O1` [Compound 5008, N-[3-(2-Fluoro-4′-{[2-(1H-imidazol-2-ylsulfanyl)-ethylamino]-methyl}-biphenyl-4-yl)-2-oxo-oxazolidin-5-(S)-ylmethyl]-acetamide], for which the MIC came out at 2 µg/mL (≈ 4.14 µM).

As for `CC(=O)NC[C@H]1CN(c2ccc(-c3ccc(CNCCSc4ncccn4)cc3)c(F)c2)C(=O)O1` [Compound 5009, N-[3-(2-Fluoro-4′-{[2-(pyrimidin-2-ylsulfanyl)-ethylamino]-methyl}-biphenyl-4-yl)-2-oxo-oxazolidin-5-(S)-ylmethyl]-acetamide], the MIC amounted to 1 µg/mL (≈ 2.02 µM).

`CCOC(=O)c1c[nH]c(SCCNCc2ccc(-c3ccc(N4C[C@H](CNC(C)=O)OC4=O)cc3F)cc2)n1` [Compound 5010, 2-[2-({4′-[5-(S)-(Acetylamino-methyl)-2-oxo-oxazolidin-3-yl]-2′-fluoro-biphenyl-4-ylmethyl}-amino)-ethylsulfanyl]-1H-imidazole-4-carboxylic acid ethyl ester]: the MIC stood at 4 µg/mL (≈ 7.2 µM).

In the case of `CC(=O)NC[C@H]1CN(c2ccc(-c3ccc(CNC[C@H](O)CSc4nnc[nH]4)cc3)c(F)c2)C(=O)O1` [Compound 5011], the MIC amounted to 4 µg/mL (≈ 7.77 µM).

Consider `CC(=O)NC[C@H]1CN(c2ccc(-c3ccc(CNC(=O)Nc4ccncc4)cc3)c(F)c2)C(=O)O1` [Compound 5012, N-(3-{2-Fluoro-4′-[(3-pyridin-4-yl-ureido)-methyl]-biphenyl-4-yl}-2-oxo-oxazolidin-5-(S)-ylmethyl)-acetamide], for which the MIC came out at 2 µg/mL (≈ 4.19 µM).

As to `CC(=O)NC[C@H]1CN(c2ccc(-c3ccc(CNC(=O)Nc4cccc(F)c4)cc3)c(F)c2)C(=O)O1` [Compound 5013, N-(3-{2-Fluoro-4′-[3-(3-fluoro-phenyl)-ureidomethyl]-biphenyl-4-yl}-2-oxo-oxazolidin-5-(S)-ylmethyl)-acetamide], the MIC was 32 µg/mL (≈ 64.7 µM).

As for `CC(=O)NC[C@H]1CN(c2ccc(-c3ccc(CNC(=O)COc4ccc(Cl)cc4Cl)cc3)c(F)c2)C(=O)O1` [Compound 5014, N-{4′-[5-(S)-(Acetylamino-methyl)-2-oxo-oxazolidin-3-yl]-2′-fluoro-biphenyl-4-ylmethyl}-2-(2,4-dichloro-phenoxy)-acetamide], the MIC is 16 µg/mL (≈ 28.6 µM).

Turning to `CC(=O)NC[C@H]1CN(c2ccc(-c3ccc(CNCCCNc4ncc(C(F)(F)F)cc4Cl)cc3)c(F)c2)C(=O)O1` [Compound 5015, N-[3-(4′-{[3-(3-Chloro-5-trifluoromethyl-pyridin-2-ylamino)-propylamino]-methyl}-2-fluoro-biphenyl-4-yl)-2-oxo-oxazolidin-5-(S)-ylmethyl]-acetamide], the MIC turned out to be 4 µg/mL (≈ 6.73 µM).

For `CC(=O)NC[C@H]1CN(c2ccc(-c3ccc(NC(=O)NCCCn4ccnc4)cc3)c(F)c2)C(=O)O1` [Compound 6001, N-(3-{2-Fluoro-4′-[3-(3-imidazol-1-yl-propyl)-ureido]-biphenyl-4-yl}-2-oxo-oxazolidin-5-(S)-ylmethyl)-acetamide], the MIC is 16 µg/mL (≈ 32.4 µM).

On to `CC(=O)NC[C@H]1CN(c2ccc(-c3ccc(NC(=O)NCCc4ccccn4)cc3)c(F)c2)C(=O)O1` [Compound 6003, N-(3-{2-Fluoro-4′-[3-(2-pyridin-2-yl-ethyl)-ureido]-biphenyl-4-yl}-2-oxo-oxazolidin-5-(S)-ylmethyl)-acetamide], for which the MIC worked out at 2 µg/mL (≈ 4.07 µM).

Regarding `CC(=O)NC[C@H]1CN(c2ccc(-c3ccc(NC(=O)NCc4ccncc4)cc3)c(F)c2)C(=O)O1` [Compound 6004, N-{3-[2-Fluoro-4′-(3-pyridin-4-ylmethyl-ureido)-biphenyl-4-yl]-2-oxo-oxazolidin-5-(S)-ylmethyl}-acetamide], the MIC was found to be 1 µg/mL (≈ 2.09 µM).

Take `CC(=O)NC[C@H]1CN(c2ccc(-c3ccc(NC(=O)NCc4ccccn4)cc3)c(F)c2)C(=O)O1` [Compound 6005, N-{3-[2-Fluoro-4′-(3-pyridin-2-ylmethyl-ureido)-biphenyl-4-yl]-2-oxo-oxazolidin-5-(S)-ylmethyl}-acetamide]: the MIC came to 1 µg/mL (≈ 2.09 µM).

`CC(=O)NC[C@H]1CN(c2ccc(-c3ccc(NC(=O)Nc4ccncc4)cc3)c(F)c2)C(=O)O1` [Compound 6006, N-{3-[2-Fluoro-4′-(3-pyridin-4-yl-ureido)-biphenyl-4-yl]-2-oxo-oxazolidin-5-(S)-ylmethyl}-acetamide]: the MIC is 128 µg/mL (≈ 276 µM).
